Assay results: publication PMC7187626 (Antimicrobial Agents and Chemotherapy, 2019)
Read-outs that look alike come from different tables or passages of the source.

What was measured:
[1] = test system: P. falciparum blood-stage malaria parasites; details: monotherapy, cited from earlier work
[2] = Noncompartmental pharmacokinetic analysis of plasma concentrations after single oral dose of artefenomel and DSM265 in combination; type: in vivo, human; details: for Cmax / AUC(0-t) / AUC(0-inf) / Vd/F / Tmax / half-life: human, plasma
Description: Plasma samples were analyzed by liquid chromatography-tandem mass spectrometry (HPLC-MS/MS) as previously described ([2], [4]). The PK parameters determined using noncompartmental analysis were the maximum plasma concentration (Cmax), the time point when Cmax was reached (tmax), the area under the concentration-time curve up to last time point measure (AUC0–last), the area under the concentration-time curve extrapolated to infinity (AUC0–∞), the elimination half-life (t1/2), the apparent clearance (CL/F), and the apparent volume of distribution associated with the terminal elimination phase, where F is bioavailability (Vz/F). The PD variables of interest in this study were the parasite reduction ratio (PRR) and parasite clearance half-life. These provide an estimate of the efficacy of an antimalarial treatment; with the former being the ratio of the parasite density decrease over a 48-h period (expressed as the log10 transformed cohort-specific PRR48 [log10 PRR48]). Noncompartmental PK analysis was performed using PKanalix (version 2019R1, Lixoft SAS, Abtony, France). The area under the concentration-time curve was determined using the linear log trapezoidal method in which linear calculation was used before maximum concentration (Cmax) and logarithmic formula for after Cmax. The slope of the terminal elimination phase (λz) was estimated via a linear regression between log concentrations and time. All parameters were summarized using geometric mean or median and range.

[3] = oral, cohort 1 (n = 8), 200 mg artefenomel plus 100 mg DSM265, plasma, read-out: Cmax, range
[4] = oral, cohort 1 (n = 8), 200 mg artefenomel plus 100 mg DSM265, read-out: AUC0–last, geometric mean
[5] = oral, cohort 1 (n = 8), 200 mg artefenomel plus 100 mg DSM265, read-out: AUC0–last, range
[6] = oral, cohort 1 (n = 8), 200 mg artefenomel plus 100 mg DSM265, read-out: AUC0–∞, geometric mean
[7] = oral, cohort 1 (n = 8), 200 mg artefenomel plus 100 mg DSM265, read-out: AUC0–∞, range
[8] = oral, cohort 1 (n = 8), 200 mg artefenomel plus 100 mg DSM265, read-out: Vz/F (apparent volume of distribution, terminal phase), geometric mean
[9] = oral, cohort 1 (n = 8), 200 mg artefenomel plus 100 mg DSM265, read-out: Vz/F, range
[10] = oral, cohort 1 (n = 8), 200 mg artefenomel plus 100 mg DSM265, read-out: tmax, median
[11] = oral, cohort 1 (n = 8), 200 mg artefenomel plus 100 mg DSM265, read-out: tmax, range
[12] = oral, cohort 2 (n = 5), 200 mg artefenomel plus 50 mg DSM265, plasma, read-out: Cmax, range
[13] = oral, cohort 2 (n = 5), 200 mg artefenomel plus 50 mg DSM265, read-out: AUC0–last, geometric mean
[14] = oral, cohort 2 (n = 5), 200 mg artefenomel plus 50 mg DSM265, read-out: AUC0–last, range
[15] = oral, cohort 2 (n = 5), 200 mg artefenomel plus 50 mg DSM265, read-out: AUC0–∞, geometric mean
[16] = oral, cohort 2 (n = 5), 200 mg artefenomel plus 50 mg DSM265, read-out: AUC0–∞, range
[17] = oral, cohort 2 (n = 5), 200 mg artefenomel plus 50 mg DSM265, read-out: Vz/F (apparent volume of distribution, terminal phase), geometric mean
[18] = oral, cohort 2 (n = 5), 200 mg artefenomel plus 50 mg DSM265, read-out: Vz/F, range
[19] = oral, cohort 2 (n = 5), 200 mg artefenomel plus 50 mg DSM265, read-out: tmax, median
[20] = oral, cohort 2 (n = 5), 200 mg artefenomel plus 50 mg DSM265, read-out: tmax, range
[21] = po, cohort 1 (n = 8), single oral dose 200 mg artefenomel plus 100 mg DSM265, plasma, read-out: Cmax, geometric mean
[22] = po, cohort 2 (n = 5), single oral dose 200 mg artefenomel plus 50 mg DSM265, plasma, read-out: Cmax, geometric mean
[23] = cohort 1 (n = 8), 200 mg artefenomel plus 100 mg DSM265
[24] = cohort 2 (n = 5), 200 mg artefenomel plus 50 mg DSM265

SMILES	Cmax [2, 3]	AUC(0-t) [2, 4]	AUC(0-t) [2, 5]	AUC(0-inf) [2, 6]	AUC(0-inf) [2, 7]	Vd/F [2, 8]	Vd/F [2, 9]	Tmax [2, 10]	Tmax [2, 11]	Cmax [2, 12]	AUC(0-t) [2, 13]	AUC(0-t) [2, 14]	AUC(0-inf) [2, 15]	AUC(0-inf) [2, 16]	Vd/F [2, 17]	Vd/F [2, 18]	Tmax [2, 19]	Tmax [2, 20]	Cmax [2, 21]	Cmax [2, 22]	other results
c1cc([C@H]2CC[C@]3(CC2)OO[C@]2(O3)C3CC4CC(C3)CC2C4)ccc1OCCN1CCOCC1 [Artefenomel]	150 to 597 ng/mL	3.01 µg·h/mL	1.11 to 4.96 µg·h/mL	3.08 µg·h/mL	1.11 to 5.09 µg·h/mL	8900 L	4810 to 16000 L	3 h	2 to 5 h	307 to 522 ng/mL	3.25 µg·h/mL	2.66 to 5.7 µg·h/mL	3.32 µg·h/mL	2.68 to 5.91 µg·h/mL	7990 L	4590 to 14300 L	5 h	1 to 6 h	372 ng/mL	412 ng/mL	recrudescence ([1]; single dose 200 mg): recrudescence occurred in all subjects; recrudescence, subjects ([1]; single dose 500 mg): 50%
Cc1cc(Nc2ccc(S(F)(F)(F)(F)F)cc2)n2nc(C(C)(F)F)nc2n1 [DSM265]	4150 to 6880 ng/mL	434 µg·h/mL	329 to 502 µg·h/mL	514 µg·h/mL	360 to 634 µg·h/mL	28 L	22 to 42 L	2 h	1 to 3 h	2150 to 4340 ng/mL	232 µg·h/mL	209 to 281 µg·h/mL	271 µg·h/mL	240 to 309 µg·h/mL	26 L	19 to 34 L	2 h	1 to 2 h	5440 ng/mL	3580 ng/mL	parasite clearance half-life ([1]; single dose 150 mg): 9.4 h; recrudescence ([1]; single dose 150 mg): recrudescence occurred in all subjects; parasite clearance half-life ([1]; single dose 400 mg): 5.2 h; recrudescence ([1]; single dose 400 mg): no recrudescence occurred; CL/F (apparent clearance), geometric mean [2, 23]: 0.19 L/h; CL/F, range [2, 23]: 0.16 to 0.28 L/h; CL/F (apparent clearance), geometric mean [2, 24]: 0.18 L/h; CL/F, range [2, 24]: 0.16 to 0.21 L/h; half-life ([2]; oral, cohort 1 (n = 8), 200 mg artefenomel plus 100 mg DSM265, read-out: t1/2 (elimination half-life), geometric mean (converted)): 4.17 days; half-life ([2]; oral, cohort 1 (n = 8), 200 mg artefenomel plus 100 mg DSM265, read-out: t1/2, range): 3.17 to 7.71 days; half-life ([2]; oral, cohort 2 (n = 5), 200 mg artefenomel plus 50 mg DSM265, read-out: t1/2 (elimination half-life), geometric mean (converted)): 4.04 days; half-life ([2]; oral, cohort 2 (n = 5), 200 mg artefenomel plus 50 mg DSM265, read-out: t1/2, range): 3.12 to 5.58 days
